Data set [1] is described as follows: Solubility and stability of form A in water. The format is physicochemical. To be noted: 22±2° C. On the procedure:
104 mg of raltegravir sodium salt form A is suspended in 1.0 ml water and the suspension placed on a laboratory shaker at 22±2° C. for 24 hours at a rate of 400 rpm. After 24 hours shaking the suspension is filtered, the obtained solid investigated by powder X-ray diffraction, and the concentration in the liquid phase is determined by UV-vis spectroscopy.

A short description of data set [2]: Storage of form A at elevated temperature. It counts as physicochemical.

In brackets after ≈: the same amount, converted by molar mass.

With `Cc1nnc(C(=O)NC(C)(C)c2nc(C(=O)NCc3ccc(F)cc3)c(O)c(=O)n2C)o1` [form A, N-(4-fluorobenzyl)-5-hydroxy-1-methyl-2-(1-methyl-1-{[(5-methyl-1,3,4-oxadiazol-2-yl)carbonyl]amino}ethyl)-6-oxo-1,6-dihydropyrimidine-4-carboxamide], the solubility in data set [1] (22 °C, thermodynamic from solid, suspended in water, 24 hours shaking, resulting pH 10.4, UV-vis, read-out: aqueous solubility (concentration in the liquid phase)) was 47 ± 5 mg/mL (≈ 106 mM). In data set [1] (suspension in water, 24 hours), the “crystalline form of the solid after suspension in water (XRPD)” value is on record as “form A is retained” and the “pH of the liquid phase” value is given as 10.4. The “crystalline form of the solid after suspension in water (XRPD)” value in data set [1] (suspension in water, 24 hours, listed as raltegravir sodium salt form A) is reported as “crystalline form A is retained”. Besides, the “thermal stability on storage” value in data set [2] is listed as “without decomposition”.

(Values after patent US9458146B2, “Crystalline sodium salt of an HIV integrase inhibitor” (SANDOZ AG, priority 2011, dated 2016).)
